Data reported in US20110190237A1, “Macrocyclic Prodrug Compounds Useful as Therapeutics” (NEXGENIX PHARMACEUTICALS, priority 2008, published 2011).
In brackets after ≈: the same amount, converted by molar mass. Where two headings read alike, the source gives them in different places.

Legend:
[1] = tested on: BT474 (breast); experiment: Cell proliferation assay (ATPlite), BT474; format: cell-based; conditions: read-out: Growth inhibition (IC50)
[2] = tested on: MDA-MB468 (breast); experiment: Cell proliferation assay (ATPlite), MDA-MB468; format: cell-based; conditions: for IC50: read-out: Growth inhibition (IC50)
[3] = tested on: N87 (gastric); experiment: Cell proliferation assay (ATPlite), N87; format: cell-based; conditions: read-out: Growth inhibition (IC50)
[4] = tested on: K562 (leukemia); experiment: Cell proliferation assay (ATPlite), K562; format: cell-based; conditions: 4 days, read-out: Growth inhibition (IC50)
[5] = tested on: MV4;11 (leukemia); experiment: Cell proliferation assay (ATPlite), MV4;11; format: cell-based; conditions: 4 days, read-out: Growth inhibition (IC50)
[6] = tested on: HCC827 (lung); experiment: Cell proliferation assay (ATPlite), HCC827; format: cell-based; conditions: 4 days, read-out: Growth inhibition (IC50)
Experimental: (§1) Cell proliferation assays were performed in various oncology cell lines, including breast cancer (BT474 and MDA-MB468), leukemia (K562 CML and MV4;11 AML), colon (HCT116), prostate cancer (PC-3), Tarceva- and Iressa-resistant non-small cell lung cancer (NSCLC, […] and H1975), gastric cancer (N87) as well as glioblastoma (A172) cell lines. […] Cell viability at day 4 was measured by the amount of ATP present in viable cells using ATPlite assay kit according to manufacturer's protocol (Perkin Elmer, Boston, Mass.). IC50 was calculated by fitting the data using XLfit software.

[7] = tested on: H1975 (lung); experiment: Cell proliferation assay (ATPlite), H1975; format: cell-based; conditions: 4 days, read-out: Growth inhibition (IC50)
Experimental: as §1

[8] = In vitro conversion/stability of prodrug in plasma; format: in vitro ADME; conditions: mouse plasma; at 60 minutes
Experimental: (§2) Hydrolysis of prodrug in vivo was estimated by incubating phosphate prodrugs in vitro with mouse small intestine and liver homogenates, mouse plasma, and artificial gastric fluid. Plasma was freshly collected from nude mice. Liver and intestine homogenates were prepared by adding 3 volume of saline to freshly collected mouse tissues and homogenized using glass homogenizer. Gastric fluid was prepared by adding 80 mL of 1M hydrochloric acid to 800 mL of water and then supplementing with 2.0 g of sodium chloride and 3.2 g of pepsin powder. The final volume of the artificial gastric fluid was adjusted with water to 1000 mL (pH=1.1). […] 100 μL samples were collected at 0, 2, 5, 15, 30 and 60 minutes. 5 volumes methanol containing internal standard was added immediately. For samples from gastric fluid incubation, 1 volume of 0.01 M Sodium hydroxide was added before injection into LC/MS/MS. All samples were analyzed by LC/MS/MS to quantitate the concentration of 1a, 1b and the corresponding parent drugs. The concentration of the parent drugs of 1a and 1b was quantitated using standard curve prepared using each vehicle.
(§3) We then evaluate other prodrug conversion in vitro using tissue homogenates and a mimic of gastric fluid (pepsin solution at pH 1.1).

[9] = In vitro conversion/stability of prodrug in artificial gastric fluid (pepsin solution, pH 1.1); format: in vitro ADME; conditions: artificial gastric fluid pH 1.1; at 60 minutes
Experimental: as §2, §3

[10] = In vitro partition between plasma and cells in mouse whole blood; format: in vitro ADME; conditions: for Test article concentration in cellular elements / Test article concentration in plasma: mouse whole blood spiked at 5 μg/mL, 37° C.; for Partition of the test articles between plasma and cells: mouse whole blood, 5 μg/mL
Experimental: The whole blood was withdrawn from mice via cardio-puncture and placed in EDTA anticoagulant tubes. The test articles were spiked to whole blood at final concentration of 5 μg/mL (at least 2 mL) and incubated at 37° C. 200 μL whole blood was taken at 0 (immediate after incubation), 5 min, 15 min and 30 min and then was centrifuged to separate plasma and cellular elements. Plasma was transferred to clean tubes. 50 μL of plasma and cellular elements were processed by addition of 3 volumes (150 μl) of ice-cold methanol. After centrifugation, the supernatants were subjected to LC-MS/MS analysis of test articles in both plasma and cellular elements.

[11] = Solubility of phosphate prodrugs in organic- and aqueous-based media; format: physicochemical; conditions: for solubility: read-out: Maximum observed solubility
Experimental: Crystalline phosphate drugs 1a and 1b were tested first in several different organic- and aqueous-based media, including water, PBS, ETOH, DMA, CMC, and PG.
The maximum observed solubilities with small lots of crystalline drug in 4-mL glass clear tubes were: […]

[12] = Solubility for oral formulation of PU24FCl; format: physicochemical; conditions: in our hands
Excerpt: More recently, other novel non-natural product Hsp90 inhibitors have been reported (e.g. PU3 and CCT018159; see Chiosis et. al. Bioorg. Med. Chem. Lett. 2002, 10, 3555-3564; Vilenchik et. al. Chem. Biol. 2004, 11, 787-797; Chiosis et. al. WO 0236075, 2002; Drysdale et. al. WO 03/055860 A1, 2003; Wright et. al. Chem. Biol. 2004, 11, 775-785; Dymock et. al. Bioorg. Med. Chem. Lett. 2004, 14, 325-328; Dymock et. al. J. Med. Chem. 2005, 48, 4212-4215. Structure of Hsp90 in complex with PU3 pdb code 1UY6, and with PU24FCl: pdb code 1UYF and Clevenger et. al. Org. Lett. 2004, 6, 4459-4462). […] The 8-benzyladenines such as PU3 were designed to adopt the same C-shaped conformation as geldanamycin (Chiosis et. al. Current Cancer Drug Targets, 2003, 3, 371-376) with the adenine ring pointing to the adenine-binding site (hinge region), and the trimethoxybenzene ring emulating the H-bond accepting nature of the quinone ring of geldanamycin. […]

[13] = tested on: MCF-7 xenograft tumors; conditions: mice bearing MCF-7 xenograft tumors; intraperitoneally, 200 mg/kg; DMSO/EtOH/phosphate-buffered saline 1:1:1; cited from earlier work
[14] = tested on: MDA231 (breast); experiment: Cell proliferation assay (ATPlite), MDA231; format: cell-based; conditions: 4 days, read-out: Growth inhibition (IC50)
[15] = tested on: HCT116 (colon); experiment: Cell proliferation assay (ATPlite), HCT116; format: cell-based; conditions: 4 days, read-out: Growth inhibition (IC50)
[16] = tested on: A172(glioblastoma); experiment: Cell proliferation assay (ATPlite), A172; format: cell-based; conditions: 4 days, read-out: Growth inhibition (IC50)
Experimental: as §1

[17] = target: HSP90α (Homo sapiens, UniProt P07900); experiment: HSP90α affinity; format: binding
[18] = BT474 (breast), 4 days, cell viability by ATPlite
[19] = MDA-MB468 (breast), 4 days, ATPlite

| Compound | IC50 [1, 18] | IC50 [2, 19] | IC50 ([3]; N87 (gastric), 4 days, ATPlite) | IC50 [4] | IC50 [5] | IC50 [6] | IC50 [7] | Prodrug intact in plasma [8] | Prodrug intact in artificial gastric fluid [9] | Test article concentration in cellular elements ([10]; 0 min) | Test article concentration in plasma ([10]; 0 min) | Test article concentration in cellular elements ([10]; 5 min) | Test article concentration in plasma ([10]; 5 min) | Test article concentration in cellular elements ([10]; 15 min) | Test article concentration in plasma ([10]; 15 min) | Test article concentration in cellular elements ([10]; 30 min) | Test article concentration in plasma ([10]; 30 min) | Partition of the test articles between plasma and cells [10] | Solubility in water and PBS compared to the parent drugs [11] | HSP90α affinity [17] | also measured |
| --- | --- | --- | --- | --- | --- | --- | --- | --- | --- | --- | --- | --- | --- | --- | --- | --- | --- | --- | --- | --- | --- |
| C=CCNC1=C2C[C@@H](C)C[C@H](OC)[C@H](O)[C@@H](C)/C=C(\C)[C@H](OC(N)=O)[C@@H](OC)/C=C\C=C(/C)C(=O)NC(=CC1=O)C2=O [Compound 17AAG, 17-allylamino-17-demethoxygeldanamycin, reference compound] | 5 nM | 780 nM | 1 nM | 48 nM | 11 nM | 56 nM | 35 nM | – | – | – | – | – | – | – | – | – | – | – | – | – | Anti-proliferative activity against MDA-MB468 ([2]; MDA-MB468): significantly less sensitive |
| O=C1OCC/C=C/CC/C=C/C(=N\OCC(=O)N2CCCCC2)Cc2c(Cl)c(OP(=O)(O)O)cc(O)c21 [Compound 1a] | – | – | – | – | – | – | – | about 90% | about 70% | 1893.93 ng/mL | 7988.91 ng/mL | 1632.69 ng/mL | 7654.94 ng/mL | 1655.20 ng/mL | 8123.27 ng/mL | 1956.15 ng/mL | 9680.38 ng/mL | The concentration of 1a and 1b in plasma is larger than the nominated concentration in whole blood (5 μg/mL), which indicated that the partition of the test articles was mainly in plasma. | very soluble | – | solubility ([11]; 0.5% CMC/0.1% Tween-20/0.45% NaCl): 87.5 mg/mL (≈ 157 mM); solubility ([11]; PBS): 55 mg/mL (≈ 98.8 mM) |
| C#CCCCn1c(Cc2cc(OC)c(OC)c(OC)c2Cl)nc2c(N)nc(F)nc21 [PU24FCl] | – | – | – | – | – | – | – | – | – | – | – | – | – | – | – | – | – | – | – | – | Solubility for oral formulation and delivery [12]: too insoluble; Tumor growth [13]: significantly repressed tumor growth |
| O=C1OCC/C=C/CC/C=C/C(=N\OCC(=O)N2CCCCC2)Cc2c(Cl)c(O)cc(O)c21 [1a parent] | 7 nM | 9 nM | 4 nM | 6 nM | 3 nM | 31 nM | 25 nM | – | – | – | – | – | – | – | – | – | – | – | – | 21 nM | IC50 [14]: 7 nM; IC50 [15]: 9 nM; IC50 [16]: 42 nM |
| O=C1OCC/C=C/CC/C=C/C(=N\OCC(=O)N2CCCCC2)Cc2cc(O)cc(O)c21 [1b parent] | 2 nM | 2 nM | 1 nM | 4 nM | 2 nM | – | – | – | – | – | – | – | – | – | – | – | – | – | – | 15 nM | IC50 [14]: 2 nM; IC50 [15]: 11 nM |
| O=C1OCC/C=C/CC/C=C/C(=N\OCC(=O)N2CCCCC2)Cc2cc(OP(=O)(O)O)cc(O)c21 [Compound 1b] | – | – | – | – | – | – | – | about 90% | about 70% | 1999.60 ng/mL | 7119.50 ng/mL | 1364.01 ng/mL | 7833.27 ng/mL | 1070.97 ng/mL | 7672.71 ng/mL | 1237.82 ng/mL | 7409.47 ng/mL | The concentration of 1a and 1b in plasma is larger than the nominated concentration in whole blood (5 μg/mL), which indicated that the partition of the test articles was mainly in plasma. | very soluble | >10 000 nM | IC50 ([1]; Homo sapiens, BT-474, 96 h): 14 nM; IC50 ([2]; Homo sapiens, MDA-MB-468, 96 h): 37 nM; IC50 ([3]; 96 h): 19 nM; Binding to Hsp90 in vitro [17]: does not bind |
